{"source": "patent US8580827B2", "about": "(priority 2009, dated 2013)", "key": {"[1]": {"test_system": "live vaccine strain (LVS, type B)", "test": "microbe, parasite or virus in culture", "assay_type": "cell-based, F. tularensis"}, "F. novicida strain U112": {"test_system": "F. novicida strain U112", "test": "microbe, parasite or virus in culture", "assay_type": "cell-based, F. tularensis subspecies novicida"}, "[2]": {"test_system": "Escherichia coli (ATCC 25922)", "assay_type": "cell-based"}, "[3]": {"test_system": "Salmonella enterica serovar Typhimurium (ATCC 14028)", "assay_type": "cell-based"}, "[4]": {"test_system": "F. tularensis strain Schu S4 (type A)", "test": "microbe, parasite or virus in culture", "assay_type": "cell-based"}, "[5]": {"test_system": "intracellular F. novicida in RAW264.7 murine macrophages", "assay_type": "cell-based"}, "[6]": {"test_system": "intracellular F. novicida in TPA-differentiated human THP-1 macrophages", "assay_type": "cell-based"}, "[7]": {"test_system": "intracellular F. tularensis (type A, Schu S4) in TPA-treated THP-1 cells", "assay_type": "cell-based"}, "[8]": {"test_system": "RAW264.7 murine macrophage cells"}, "[9]": {"conditions": "Francisella tularensis, U112, 24 h"}}, "note": "Entries after “also recorded” stand apart in the source; their conditions may differ. Like-named read-outs stand apart in the source and are kept apart here.", "data": [{"smiles": "Nc1ccc(-n2nc(C(F)(F)F)cc2-c2ccc(-c3cc(Cl)c(Cl)cc3Cl)cc2)cc1", "note": "[Compound 17, 4-[5-(2′,4′,5′-Trichloro-biphenyl-4-yl)-3-trifluoromethyl-pyrazol-1-yl]-phenylamine]", "values": [{"measurement": "MIC", "setting": "[1]", "value": "potent inhibitor"}, {"measurement": "MIC", "setting": "F. novicida strain U112", "value": "no measurable inhibitory effect"}]}, {"smiles": "NS(=O)(=O)c1ccc(-n2nc(C(F)(F)F)cc2-c2ccc(-c3ccc(Cl)cc3)cc2)cc1", "note": "[Compound 11, 4-[5-(4′-Chloro-biphenyl-4-yl)-3-trifluoromethyl-pyrazol-1-yl]-benzenesulfonamide]", "values": [{"measurement": "MIC", "setting": "[1]; Francisella tularensis, 48 h", "value": "≤ 4", "unit": "µg/mL"}, {"measurement": "MIC", "setting": "F. novicida strain U112; [9]", "value": "≤ 4", "unit": "µg/mL"}]}, {"smiles": "Cc1ccc(-c2cc(C(F)(F)F)nn2-c2ccc(S(N)(=O)=O)cc2)cc1", "note": "[celecoxib, 4-[5-(4-methylphenyl)-3-(trifluoromethyl)pyrazol-1-yl]benzenesulfonamide, reference compound]", "values": [{"measurement": "activity against E. coli", "setting": "[2]", "value": "inactive"}, {"measurement": "decrease in CFU", "setting": "[1]", "value": "≧log decrease in CFU"}, {"measurement": "MIC", "setting": "[1]; Francisella tularensis, 48 h", "value": 16, "unit": "µg/mL"}, {"measurement": "activity against S. enterica serovar Typhimurium", "setting": "[3]", "value": "inactive"}, {"measurement": "decrease in CFU", "setting": "F. novicida strain U112", "value": "≧log decrease in CFU"}, {"measurement": "MIC", "setting": "[4]; Francisella tularensis, 24 h", "value": 16, "unit": "µg/mL"}]}, {"smiles": "Nc1ccc(-n2nc(C(F)(F)F)cc2-c2ccc(-c3ccc(Br)cc3)cc2)cc1", "note": "[Compound 20, 4-[5-(4′-Bromo-biphenyl-4-yl)-3-trifluoromethyl-pyrazol-1-yl]-phenylamine]", "values": [{"measurement": "inhibition of intracellular F. novicida survival", "setting": "[5]", "value": "effectively inhibits; also recorded: could inhibit the survival of intracellular Francisella"}, {"measurement": "inhibition of intracellular F. novicida survival", "setting": "[6]", "value": "effectively inhibits; also recorded: could inhibit the survival of intracellular Francisella"}, {"measurement": "inhibition of intracellular Schu S4 survival", "setting": "[7]", "value": "significant inhibitory effect"}, {"measurement": "activity against E. coli", "setting": "[2]", "value": "inactive"}, {"measurement": "MIC", "setting": "[1]; Francisella tularensis, 48 h", "value": "≤ 4", "unit": "µg/mL"}, {"measurement": "activity against S. enterica serovar Typhimurium", "setting": "[3]", "value": "inactive"}, {"measurement": "MIC", "setting": "F. novicida strain U112; [9]", "value": "≤ 4", "unit": "µg/mL"}]}, {"smiles": "CS(=O)(=O)c1ccc(C2=C(c3ccccc3)C(=O)OC2)cc1", "note": "[rofecoxib]", "values": [{"measurement": "effect on bacteria", "setting": "[2]", "value": "no appreciable effect"}, {"measurement": "effect on bacteria", "setting": "[1]", "value": "no appreciable effect"}, {"measurement": "effect on bacteria", "setting": "[3]", "value": "no appreciable effect"}, {"measurement": "effect on bacteria", "setting": "F. novicida strain U112", "value": "no appreciable effect"}, {"measurement": "effect on bacteria", "setting": "[4]", "value": "no appreciable effect"}]}, {"smiles": "NC(=O)c1ccc(-n2nc(C(F)(F)F)cc2-c2ccc(-c3ccc(Cl)cc3)cc2)cc1", "note": "[Compound 2, 4-[5-(4′-Chloro-biphenyl-4-yl)-3-trifluoromethyl-pyrazol-1-yl]-benzamide]", "values": [{"measurement": "MIC", "setting": "[1]; Francisella tularensis, 48 h", "value": "≤ 4", "unit": "µg/mL"}, {"measurement": "MIC", "setting": "F. novicida strain U112; [9]", "value": "≤ 4", "unit": "µg/mL"}]}, {"smiles": "NS(=O)(=O)c1ccc(-n2nc(C(F)(F)F)cc2-c2ccc(-c3cc(Cl)c(Cl)cc3Cl)cc2)cc1", "note": "[Compound 12, 4-[5-(2′,4′,5′-Trichloro-biphenyl-4-yl)-3-trifluoromethyl-pyrazol-1-yl]-benzenesulfonamide]", "values": [{"measurement": "cytotoxicity for macrophages", "setting": "[8]", "value": "showed cytotoxicity for macrophages"}, {"measurement": "MIC", "setting": "F. novicida strain U112; [9]", "value": "≤ 4", "unit": "µg/mL"}]}, {"smiles": "Nc1ccc(-n2nc(C(F)(F)F)cc2-c2ccc(-c3ccccc3)cc2)cc1", "note": "[Compound 16, 4-(5-Biphenyl-4-yl-3-trifluoromethyl-pyrazol-1-yl)-phenylamine]", "values": [{"measurement": "MIC", "setting": "[1]; Francisella tularensis, 48 h", "value": "≤ 4", "unit": "µg/mL"}, {"measurement": "MIC", "setting": "F. novicida strain U112; [9]", "value": "≤ 4", "unit": "µg/mL"}]}]}
